Consider three compounds from patent US5703097A, “5-pyrrolyl-2-pyridylmethylsulfinyl benzimidazole derivatives” (priority 1994, dated 1997).

For data set [1], the target named is T1, H^+ /K^+ -ATPase (Oryctolagus cuniculus, UniProt P27112).
T1 construct: The gastric mucous membrane was removed from a rabbit; from tissue; host or cells: rabbit gastric mucosa, microsomal fraction (77,000 g)
Briefly: Inhibition of enzyme activity: in vitro inhibition of H+/K+-ATPase (TEST 1). The data set is classed as biochemical, rabbit. The following applies: 5 min pre-incubation at 37° C., 4 mM ATP. The method, then:
In this test, omeprazole [5-methoxy-2-[[(4-methoxy-3,5-dimethyl-2-pyridinyl)methyl]sulfinyl]-1H-benzimidazole] was used as the control compound.
The gastric mucous membrane was removed from a rabbit and then centrifuged with 77,000 g using a ultra-centrifuge to separate the microsomal fraction which was used as the source of H^+ /K^+ -ATPase enzyme for this test. 60 μg of H^+ /K^+ -ATPase was pre-incubated with the sample (the compound according to the present invention) for 5 minutes at 37° C. and then 4 mM ATP as the substrate and 4 mM Mg^++, 20 mM K^+ as the cofactor were added thereto. Then, the amount of inorganic phosphorus thus produced was determined using a spectrophotometer at 660 nm and converted into the amount of protein. […]

Data set [2] relates to gastric juice secretion. The experiment in a line: Effect on inhibition of gastric juice secretion, in vivo, Shay method (TEST 2). Details: species or system rat (SD male rats). To be noted: for Volume of gastric juice / Inhibition rate, gastric juice secretion: 5 hours; for Volume of gastric juice: pylorus-ligated rats; for Inhibition rate, gastric juice secretion: vs normal group. The method, then: (§1) The specific test methods are as follows.
(§2) SD male rats (200±20 g) were fasted for 24 hours, except for water, and then anesthesized with ether. The abdomen of rats was incised and then the pylorus was ligated. The test compounds were suspended or dissolved in 5% CMC (carboxymethylcellulose) and injected into duodenum. After the abdomen was sutured, the rats were allowed to stand for 5 hours and then sacrificed with ether. The stomach was removed from rats and the gastric juices were collected. The gastric juice was centrifuged with 10,000 xg for 10 minutes at 4° C. to remove the precipitate. The amount of gastric juice and acidity were determined using pH 7.0 end point assay with 0.02N NaOH and then the total acid output was calculated.

Data set [3] relates to gastric acidity. Briefly: Effect on inhibition of acidity (total acid output), in vivo, Shay method (TEST 2). Set-up: species or system rat (SD male rats). To be noted: for Volume (acidity, total acid output) / Inhibition rate, acidity: 5 hours; for Volume (acidity, total acid output): pylorus-ligated rats; for Inhibition rate, acidity: vs normal group. The method, then: as §1, §2

Data set [4] is described as follows: in vivo. The following applies: mouse, po. The method, then: (§3) Five weeks aged ICR (male, female) mouse were pre-bred in the breeding cage for one week and then the animals showing a smooth gain in body weight were randomly selected and used in this test. The amount to be administered to the test animals was established on the basis of the maximum dose of 4,000 mg/kg with the common ratio of 1.5.
(§4) The test compounds in a powder form were suspended in 0.5% methylcellulose and administered per oral using a syringe. The other specific conditions for administration are described in the following.
(§5) In the above test, the control group received only 0.5% methylcellulose.

Data set [5] deals with ICR (male, female) mouse. Briefly: in vivo. To be noted: po. The method, then:
as §3, §4, §5

Where [6] appears, read: in words, even at a lower dose than that of the known anti-ulcer agent.

pIC50: −log10 of the molar value.

T1 sequence (P27112 2-1035 limits assumed): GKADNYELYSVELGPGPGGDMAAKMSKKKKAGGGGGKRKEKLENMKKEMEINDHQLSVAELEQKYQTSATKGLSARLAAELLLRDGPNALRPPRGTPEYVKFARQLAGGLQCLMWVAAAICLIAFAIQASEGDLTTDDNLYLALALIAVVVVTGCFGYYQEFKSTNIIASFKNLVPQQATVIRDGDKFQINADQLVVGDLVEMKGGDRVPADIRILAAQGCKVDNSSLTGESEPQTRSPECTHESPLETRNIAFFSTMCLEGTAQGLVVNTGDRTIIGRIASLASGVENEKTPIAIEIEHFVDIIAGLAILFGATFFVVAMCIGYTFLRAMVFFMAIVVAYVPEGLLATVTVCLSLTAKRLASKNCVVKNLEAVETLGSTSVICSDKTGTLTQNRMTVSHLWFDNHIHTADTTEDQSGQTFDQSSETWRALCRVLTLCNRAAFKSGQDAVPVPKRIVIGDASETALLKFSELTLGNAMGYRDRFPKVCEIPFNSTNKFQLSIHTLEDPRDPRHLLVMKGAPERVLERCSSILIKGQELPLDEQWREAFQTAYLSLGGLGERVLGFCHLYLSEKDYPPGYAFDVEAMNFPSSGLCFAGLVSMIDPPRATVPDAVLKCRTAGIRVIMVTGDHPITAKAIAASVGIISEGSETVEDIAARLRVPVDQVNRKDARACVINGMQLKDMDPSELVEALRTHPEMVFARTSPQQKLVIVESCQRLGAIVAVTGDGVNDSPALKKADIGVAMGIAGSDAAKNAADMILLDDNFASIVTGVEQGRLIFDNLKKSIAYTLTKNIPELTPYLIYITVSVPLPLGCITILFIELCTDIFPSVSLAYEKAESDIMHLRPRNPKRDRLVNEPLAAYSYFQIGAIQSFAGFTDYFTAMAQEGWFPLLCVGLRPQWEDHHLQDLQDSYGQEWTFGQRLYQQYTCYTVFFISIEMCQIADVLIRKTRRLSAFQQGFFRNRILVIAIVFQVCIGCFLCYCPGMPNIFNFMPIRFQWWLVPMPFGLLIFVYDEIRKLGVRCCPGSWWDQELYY
T1 sequence (P18597 whole entry partner): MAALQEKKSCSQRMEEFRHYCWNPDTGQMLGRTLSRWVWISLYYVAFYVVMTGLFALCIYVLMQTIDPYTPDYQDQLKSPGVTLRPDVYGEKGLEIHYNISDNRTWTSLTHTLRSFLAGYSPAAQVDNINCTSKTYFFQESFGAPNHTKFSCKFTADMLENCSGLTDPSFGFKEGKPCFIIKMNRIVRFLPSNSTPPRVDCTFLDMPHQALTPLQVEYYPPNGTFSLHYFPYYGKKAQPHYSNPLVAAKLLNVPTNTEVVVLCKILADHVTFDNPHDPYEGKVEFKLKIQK

Broadly, the pIC50 is −log10 of the IC50, conventionally taken in molar units. The ED50 is the dose that gives a 50% effect, or the effect in half of the subjects. By LD50 is commonly meant the dose expected to kill half of the subjects tested. Lower therefore signals greater toxicity. For `COc1ccnc(C[S+]([O-])c2nc3cc(-n4cccc4)ccc3[nH]2)c1C` (stereo not drawn) [Compound 2, 2-[[(4-methoxy-3-methyl)-2-pyridinyl]methylsulfinyl]-5-(1H-pyrrol-1-yl)-1H-benzimidazole], the pIC50 in data set [1] is 4.64. Also, the “Volume of gastric juice” value worked out at 1.98 ± 0.23 ml/100 g BW in data set [2] (3 mg/kg, into duodenum); 1.31 ± 0.10 ml/100 g BW in data set [2] (10 mg/kg, into duodenum); 0.99 ± 0.14 ml/100 g BW in data set [2] (30 mg/kg, into duodenum). The “Inhibition rate, gastric juice secretion” value in data set [2] (3 mg/kg, into duodenum) worked out at 46.45%; in data set [2] (10 mg/kg, into duodenum), 64.55%; in data set [2] (30 mg/kg, into duodenum), 73.11%. Besides, the ED50 was 3.6 mg/kg in data set [2] (Rattus norvegicus, 5 h, rats, into duodenum, read-out: ED50 for the effect on inhibition of gastric acid secretion) and 1.6 mg/kg in data set [3] (Rattus norvegicus, 5 h, rats, into duodenum). For the same compound, in data set [2] (in words), the “effect for inhibition of gastric acid secretion” value was “good effects”. Further, the “inhibition of gastric juice secretion” value in data set [2] (setting [6]) is given as “strong inhibition of gastric juice secretion”. The “Volume (acidity, total acid output)” value in data set [3] (3 mg/kg, into duodenum) is reported as 31.09 ± 4.10 μ Eq/hr; in data set [3] (10 mg/kg, into duodenum), 10.20 ± 1.93 μ Eq/hr; in data set [3] (30 mg/kg, into duodenum), 5.32 ± 3.30 μ Eq/hr. Also, the “Inhibition rate, acidity” value in data set [3] (3 mg/kg, into duodenum) was determined as 60.08%; in data set [3] (10 mg/kg, into duodenum) it was 86.90%; in data set [3] (30 mg/kg, into duodenum), 93.17%. Moreover, the “effect for lowering acidity” value in data set [3] (in words) is reported as “good effects”. The acidity lowering effect result in data set [3] (setting [6]) is recorded as “high acidity lowering effect”. For the same compound, the LD50 is no less than 4000 mg/kg in data set [4] and greater than 4000.0 mg/kg in data set [5]. Also, the “change in body weight” value in data set [5] was “does not affect the normal change in body weight”. Further, in data set [5], the “change in internal and external organs” value was “no effect on the internal and external organs”. The safety result in data set [5] is “very safe compound”.

In data set [1], `COc1cc(C[S+]([O-])c2nc3cc(-n4cccc4)ccc3[nH]2)ncc1C` (stereo not drawn) [Compound 18] showed a negative logarithm of the IC50 (pIC50) of 4.42. The “Volume of gastric juice” value in data set [2] (3 mg/kg, into duodenum) was determined as 2.24 ± 0.12 ml/100 g BW; in data set [2] (10 mg/kg, into duodenum), 2.14 ± 0.30 ml/100 g BW; in data set [2] (30 mg/kg, into duodenum), 1.53 ± 0.19 ml/100 g BW. Besides, the “Inhibition rate, gastric juice secretion” value in data set [2] (3 mg/kg, into duodenum) was found to be 27.35%; in data set [2] (10 mg/kg, into duodenum), 30.90%; in data set [2] (30 mg/kg, into duodenum), 50.42%. For the same compound, the “Volume (acidity, total acid output)” value in data set [3] (3 mg/kg, into duodenum) came to 28.37 ± 3.44 μ Eq/hr; in data set [3] (10 mg/kg, into duodenum) it was 23.40 ± 3.94 μ Eq/hr; in data set [3] (30 mg/kg, into duodenum), 15.72 ± 3.60 μ Eq/hr. In addition, the “Inhibition rate, acidity” value is 53.39% in data set [3] (3 mg/kg, into duodenum); 61.55% in data set [3] (10 mg/kg, into duodenum); 74.18% in data set [3] (30 mg/kg, into duodenum).

Consider `COc1ccc2[nH]c([S+]([O-])Cc3ncc(C)c(OC)c3C)nc2c1` (stereo not drawn) [Omeprazole, 5-methoxy-2-[[(4-methoxy-3,5-dimethyl-2-pyridinyl)methyl]sulfinyl]-1H-benzimidazole, reference compound], for which, in data set [1], the pIC50 was roughly 3.80. In data set [2] (10 mg/kg, into duodenum), the “Volume of gastric juice” value amounted to 1.68 ± 0.30 ml/100 g BW and the “Inhibition rate, gastric juice secretion” value came out at 54.49%. Further, in data set [3] (10 mg/kg, into duodenum), the “Volume (acidity, total acid output)” value is given as 12.46 ± 1.85 μ Eq/hr and the “Inhibition rate, acidity” value is 84.00%.
